Consider 10 compounds from US12258327B2, “5-membered heteroaryl-containing aminopyridine compounds as EGFR inhibitors” (YUHAN CORPORATION, priority 2021, dated 2025).

The target of one assay is EGFR L858R/T790M/C797S (Homo sapiens, UniProt P00533, C797S/L858R/T790M). In words: Biochemical EGFR kinase assay (Lance Ultra TR-FRET), triple mutant L858R/T790M/C797S. The essentials: (§1)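 In this biochemical assay, phosphorylation after a one-hour room-temperature reaction was detected with europium-labelled anti-phosphopeptide antibody at 2 nM final concentration.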
(In TR-FRET formats the signal depends on donor and acceptor labels being close together.)

For another assay, the target named is EGFR wildtype (WT) (Homo sapiens, UniProt P00533). In words: Biochemical EGFR kinase assay (Lance Ultra TR-FRET), wildtype. Put shortly: as §1
Sequence of EGFR wildtype (WT) (P00533 25-1210): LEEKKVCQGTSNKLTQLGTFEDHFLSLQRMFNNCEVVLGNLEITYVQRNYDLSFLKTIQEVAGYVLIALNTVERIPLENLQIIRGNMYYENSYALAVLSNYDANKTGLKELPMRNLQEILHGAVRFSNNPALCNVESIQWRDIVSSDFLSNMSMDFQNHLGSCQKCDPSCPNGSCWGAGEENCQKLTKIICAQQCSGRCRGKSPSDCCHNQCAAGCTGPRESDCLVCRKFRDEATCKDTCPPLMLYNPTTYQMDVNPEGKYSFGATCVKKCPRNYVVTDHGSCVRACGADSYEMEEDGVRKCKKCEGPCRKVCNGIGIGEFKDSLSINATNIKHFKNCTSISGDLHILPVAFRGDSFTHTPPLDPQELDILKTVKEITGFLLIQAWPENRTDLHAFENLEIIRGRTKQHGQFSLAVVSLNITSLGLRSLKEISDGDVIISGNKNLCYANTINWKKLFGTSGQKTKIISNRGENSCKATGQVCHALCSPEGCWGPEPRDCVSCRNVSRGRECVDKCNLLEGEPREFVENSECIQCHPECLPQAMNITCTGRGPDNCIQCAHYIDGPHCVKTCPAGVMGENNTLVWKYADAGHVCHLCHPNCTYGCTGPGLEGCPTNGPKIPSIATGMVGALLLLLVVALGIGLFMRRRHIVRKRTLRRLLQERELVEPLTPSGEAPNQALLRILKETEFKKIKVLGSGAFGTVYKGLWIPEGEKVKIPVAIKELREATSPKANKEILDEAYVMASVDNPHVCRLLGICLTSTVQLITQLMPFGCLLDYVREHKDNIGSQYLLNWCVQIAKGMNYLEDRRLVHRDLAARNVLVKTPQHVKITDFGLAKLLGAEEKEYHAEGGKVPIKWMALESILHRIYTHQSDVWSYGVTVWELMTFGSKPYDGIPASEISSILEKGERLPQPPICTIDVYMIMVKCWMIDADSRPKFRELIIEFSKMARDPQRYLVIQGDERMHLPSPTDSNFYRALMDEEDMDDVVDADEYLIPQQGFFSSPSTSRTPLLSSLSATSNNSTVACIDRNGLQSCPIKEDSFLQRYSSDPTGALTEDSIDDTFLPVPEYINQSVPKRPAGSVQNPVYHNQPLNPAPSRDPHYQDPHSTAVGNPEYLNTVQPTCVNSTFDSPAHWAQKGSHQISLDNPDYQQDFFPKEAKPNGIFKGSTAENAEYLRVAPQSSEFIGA
Another assay deals with EGFR L858R/C797S (Homo sapiens, UniProt P00533, C797S/L858R). In words: Biochemical EGFR kinase assay (Lance Ultra TR-FRET), double mutant L858R/C797S. The essentials: as §1
Sequence of EGFR L858R/C797S (P00533 25-1210 C797S/L858R): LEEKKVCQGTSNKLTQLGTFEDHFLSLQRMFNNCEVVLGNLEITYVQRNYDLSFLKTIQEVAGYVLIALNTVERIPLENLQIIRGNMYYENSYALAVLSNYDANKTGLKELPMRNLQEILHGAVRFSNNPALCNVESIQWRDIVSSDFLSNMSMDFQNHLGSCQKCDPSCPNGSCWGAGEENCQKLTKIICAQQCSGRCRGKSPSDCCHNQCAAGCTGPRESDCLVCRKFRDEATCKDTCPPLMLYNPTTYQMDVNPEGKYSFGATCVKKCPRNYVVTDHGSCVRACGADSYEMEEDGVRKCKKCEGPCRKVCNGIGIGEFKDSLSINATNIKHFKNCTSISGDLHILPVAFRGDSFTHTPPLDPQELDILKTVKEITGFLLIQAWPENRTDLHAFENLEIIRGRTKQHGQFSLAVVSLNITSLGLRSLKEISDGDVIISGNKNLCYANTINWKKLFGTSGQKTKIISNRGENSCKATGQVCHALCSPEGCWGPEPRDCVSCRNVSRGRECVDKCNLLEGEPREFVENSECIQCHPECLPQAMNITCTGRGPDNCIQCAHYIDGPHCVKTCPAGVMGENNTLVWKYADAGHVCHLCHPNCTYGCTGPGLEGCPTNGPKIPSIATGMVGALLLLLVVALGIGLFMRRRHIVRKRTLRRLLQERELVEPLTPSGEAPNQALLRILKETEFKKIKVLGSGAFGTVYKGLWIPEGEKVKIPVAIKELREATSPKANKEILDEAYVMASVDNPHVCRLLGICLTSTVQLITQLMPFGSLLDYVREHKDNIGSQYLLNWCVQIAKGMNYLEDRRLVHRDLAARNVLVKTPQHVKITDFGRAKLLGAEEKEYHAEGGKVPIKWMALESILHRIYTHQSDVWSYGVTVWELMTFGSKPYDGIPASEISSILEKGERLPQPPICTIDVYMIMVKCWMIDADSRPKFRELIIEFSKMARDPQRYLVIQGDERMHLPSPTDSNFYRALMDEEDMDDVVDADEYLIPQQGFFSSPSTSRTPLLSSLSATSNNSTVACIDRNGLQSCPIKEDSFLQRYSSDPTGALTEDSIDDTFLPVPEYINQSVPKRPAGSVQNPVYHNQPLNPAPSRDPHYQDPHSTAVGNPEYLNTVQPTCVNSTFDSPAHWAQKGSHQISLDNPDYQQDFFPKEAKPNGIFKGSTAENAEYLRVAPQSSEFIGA
For the next assay, the target named is EGFR del19/C797S (Homo sapiens, UniProt P00533, C797S/DEL746-750). Briefly: Biochemical EGFR kinase assay (Lance Ultra TR-FRET), double mutant del19/C797S. Put shortly: as §1
Sequence of EGFR del19/C797S (P00533 with tags, fused parts or gaps DEL746-750/C797S): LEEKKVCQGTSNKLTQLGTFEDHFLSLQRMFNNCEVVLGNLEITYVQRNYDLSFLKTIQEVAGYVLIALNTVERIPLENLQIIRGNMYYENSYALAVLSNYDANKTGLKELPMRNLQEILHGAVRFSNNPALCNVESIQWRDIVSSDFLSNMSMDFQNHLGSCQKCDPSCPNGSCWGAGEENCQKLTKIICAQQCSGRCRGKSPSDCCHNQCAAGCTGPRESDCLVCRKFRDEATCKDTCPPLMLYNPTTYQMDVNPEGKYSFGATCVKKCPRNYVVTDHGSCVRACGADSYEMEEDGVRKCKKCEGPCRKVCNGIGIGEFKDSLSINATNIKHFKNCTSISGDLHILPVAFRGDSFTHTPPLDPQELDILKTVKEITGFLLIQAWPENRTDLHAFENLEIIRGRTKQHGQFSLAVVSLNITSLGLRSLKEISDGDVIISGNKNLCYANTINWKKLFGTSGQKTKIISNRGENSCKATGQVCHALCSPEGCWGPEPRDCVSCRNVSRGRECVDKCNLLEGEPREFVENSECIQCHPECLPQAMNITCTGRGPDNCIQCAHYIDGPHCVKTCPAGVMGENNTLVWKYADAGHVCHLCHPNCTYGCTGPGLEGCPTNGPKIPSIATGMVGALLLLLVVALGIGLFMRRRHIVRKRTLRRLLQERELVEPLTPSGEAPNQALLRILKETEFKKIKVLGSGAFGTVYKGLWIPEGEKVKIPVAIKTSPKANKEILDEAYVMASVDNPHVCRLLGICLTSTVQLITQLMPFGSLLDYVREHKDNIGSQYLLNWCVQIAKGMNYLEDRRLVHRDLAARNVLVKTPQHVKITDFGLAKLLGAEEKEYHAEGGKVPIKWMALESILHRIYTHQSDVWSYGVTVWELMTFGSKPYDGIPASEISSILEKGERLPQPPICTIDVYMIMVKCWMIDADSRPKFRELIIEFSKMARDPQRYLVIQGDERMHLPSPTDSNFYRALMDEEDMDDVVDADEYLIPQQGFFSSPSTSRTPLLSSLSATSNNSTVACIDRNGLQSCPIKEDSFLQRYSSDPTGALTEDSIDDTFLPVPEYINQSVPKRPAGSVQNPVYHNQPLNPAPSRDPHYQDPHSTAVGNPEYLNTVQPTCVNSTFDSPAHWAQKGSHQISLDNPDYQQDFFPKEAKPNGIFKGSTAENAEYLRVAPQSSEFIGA
For a further assay, the target named is EGFR del19/T790M/C797S (Homo sapiens, UniProt P00533, C797S/DEL746-750/T790M). In words: Biochemical EGFR kinase assay (Lance Ultra TR-FRET), triple mutant del19/T790M/C797S. The essentials: as §1
Sequence of EGFR del19/T790M/C797S (P00533 with tags, fused parts or gaps DEL746-750/T790M/C797S): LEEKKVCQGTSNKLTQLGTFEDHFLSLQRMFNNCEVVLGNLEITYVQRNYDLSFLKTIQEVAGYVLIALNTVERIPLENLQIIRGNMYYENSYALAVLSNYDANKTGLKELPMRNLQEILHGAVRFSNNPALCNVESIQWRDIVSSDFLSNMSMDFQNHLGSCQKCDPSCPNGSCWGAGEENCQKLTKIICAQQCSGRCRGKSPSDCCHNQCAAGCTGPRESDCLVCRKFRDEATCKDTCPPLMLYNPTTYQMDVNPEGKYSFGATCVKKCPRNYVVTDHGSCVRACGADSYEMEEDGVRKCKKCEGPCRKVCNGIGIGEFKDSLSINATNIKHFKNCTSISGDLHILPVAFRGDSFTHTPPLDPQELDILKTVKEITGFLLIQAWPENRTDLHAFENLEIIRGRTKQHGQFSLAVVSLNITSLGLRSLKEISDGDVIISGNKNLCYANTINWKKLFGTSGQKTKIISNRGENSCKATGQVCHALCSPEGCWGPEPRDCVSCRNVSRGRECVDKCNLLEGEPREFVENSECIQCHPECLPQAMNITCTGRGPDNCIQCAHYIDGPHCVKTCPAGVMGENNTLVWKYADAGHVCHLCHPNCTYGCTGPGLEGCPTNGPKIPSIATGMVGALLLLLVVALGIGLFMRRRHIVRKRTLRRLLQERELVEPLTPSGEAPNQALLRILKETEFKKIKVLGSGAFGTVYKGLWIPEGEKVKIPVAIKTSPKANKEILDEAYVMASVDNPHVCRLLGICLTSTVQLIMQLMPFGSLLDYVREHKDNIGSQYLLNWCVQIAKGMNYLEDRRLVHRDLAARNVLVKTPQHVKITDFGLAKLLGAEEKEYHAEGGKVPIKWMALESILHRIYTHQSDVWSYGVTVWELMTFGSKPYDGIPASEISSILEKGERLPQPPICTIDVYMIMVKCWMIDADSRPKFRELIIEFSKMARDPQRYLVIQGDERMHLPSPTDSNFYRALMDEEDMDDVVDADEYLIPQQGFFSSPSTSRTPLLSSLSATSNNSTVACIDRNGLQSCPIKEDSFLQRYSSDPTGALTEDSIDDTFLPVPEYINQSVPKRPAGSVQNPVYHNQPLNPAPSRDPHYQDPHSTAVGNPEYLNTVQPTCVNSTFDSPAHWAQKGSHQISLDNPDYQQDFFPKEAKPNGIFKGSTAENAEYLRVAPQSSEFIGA
[1] abbreviates: IC50 L858R/T790M/C797S (nM) 100 μM ATP, 100 μM ATP.
Setting [2] is: IC50 WT (nM) 100 μM ATP, 100 μM ATP.
The mark [3] stands for this setting: IC50 L858R/C797S (nM) 100 μM ATP, 100 μM ATP.
[4] abbreviates: IC50 del19/C797S (nM) 100 μM ATP, 100 μM ATP.
The mark [5] stands for this setting: IC50 del19/T790M/C797S (nM) 100 μM ATP, 100 μM ATP.
Where [6] appears, read: Km ATP, read-out: IC50 L858R/T790M/C797S (nM) Km ATP.
The mark [7] stands for this setting: Km ATP, read-out: IC50 WT (nM) Km ATP.
Setting [8] is: Km ATP, read-out: IC50 L858R/C797S (nM) Km ATP.
The mark [9] stands for this setting: Km ATP, read-out: IC50 del19/C797S (nM) Km ATP.
[10] abbreviates: Km ATP, read-out: IC50 del19/T790M/C797S (nM) Km ATP.

Where two headings read alike, the source gives them in different places.

`CN[C@H]1CC[C@@H](Nc2cc(Nc3ccnc(-c4cnn(S(=O)(=O)C5CC5)c4)n3)ncc2-c2csc(C(C)(C)O)n2)CC1` [Example 56, 2-(4-(6-((2-(1-(Cyclopropylsulfonyl)-1H-pyrazol-4-yl)pyrimidin-4-yl)amino)-4-(((1s,4s)-4-(methylamino)cyclohexyl)amino)pyridin-3-yl)thiazol-2-yl)propan-2-ol]: the IC50 against EGFR L858R/T790M/C797S (setting [1]) was 0.8 nM; on EGFR wildtype (WT) (setting [2]), more than 10000 nM; on EGFR L858R/C797S (setting [3]) it was 7.1 nM; at EGFR del19/C797S (setting [4]), 13.2 nM; at EGFR del19/T790M/C797S (setting [5]), 0.6 nM.
With `C[C@]1(O)CC[C@@H](Nc2cc(Nc3ccnc(-c4cnn(CC(F)F)c4)n3)ncc2-n2ccc(C(F)F)n2)CC1` [Example 177, (1s,4s)-4-((2-((2-(1-(2,2-Difluoroethyl)-1H-pyrazol-4-yl)pyrimidin-4-yl)amino)-5-(3-(difluoromethyl)-1H-pyrazol-1-yl)pyridin-4-yl)amino)-1-methylcyclohexan-1-ol], the IC50 worked out at 0.8 nM on EGFR L858R/T790M/C797S (setting [6]); 4620 nM at EGFR wildtype (WT) (setting [7]); 36.6 nM at EGFR L858R/C797S (setting [8]); 1320 nM on EGFR del19/C797S (setting [9]); 0.8 nM at EGFR del19/T790M/C797S (setting [10]).
Consider `CS(=O)(=O)Cn1cc(-c2nccc(Nc3cc(N[C@H]4CC[C@@](C)(O)CC4)c(-c4ccn(C(F)F)n4)cn3)n2)cn1` [Example 150, (1s,4s)-4-((5-(1-(Difluoromethyl)-1H-pyrazol-3-yl)-2-((2-(1-((methylsulfonyl)methyl)-1H-pyrazol-4-yl)pyrimidin-4-yl)amino)pyridin-4-yl)amino)-1-methylcyclohexan-1-ol], for which the IC50 at EGFR L858R/T790M/C797S (setting [6]) was found to be 1.2 nM; on EGFR wildtype (WT) (setting [7]) it was 104 nM; on EGFR L858R/C797S (setting [8]), 14.7 nM; at EGFR del19/C797S (setting [9]) it was 21.2 nM; at EGFR del19/T790M/C797S (setting [10]) it was 1.6 nM.
In the case of `CN(CC(F)F)C[C@H]1CC[C@@H](Nc2cc(Nc3ccnc(-c4cnn(S(=O)(=O)C5CC5)c4)n3)ncc2-c2ccn(C)n2)CC1` [Example 237, N^2-(2-(1-(Cyclopropylsulfonyl)-1H-pyrazol-4-yl)pyrimidin-4-yl)-N^4-((1s,4s)-4-(((2,2-difluoroethyl)(methyl)amino)methyl)cyclohexyl)-5-(1-methyl-1H-pyrazol-3-yl)pyridine-2,4-diamine], the IC50 against EGFR L858R/T790M/C797S (setting [1]) was 5.4 nM; on EGFR L858R/T790M/C797S (setting [6]), 3 nM; against EGFR wildtype (WT) (setting [2]) it was 2800 nM; at EGFR wildtype (WT) (setting [7]), 15.5 nM; against EGFR L858R/C797S (setting [3]) it was 61.4 nM; at EGFR L858R/C797S (setting [8]), 6.5 nM. In addition, the IC50 against EGFR del19/C797S (setting [4]) stood at 6.7 nM; at EGFR del19/C797S (setting [9]) it was 17.5 nM; against EGFR del19/T790M/C797S (setting [5]), 7.4 nM; at EGFR del19/T790M/C797S (setting [10]), 12.1 nM.
Take `O=S(=O)(C1CC1)n1cc(-c2nccc(Nc3cc(N[C@H]4CCC[C@H](CO)C4)c(-c4ccn(C(F)F)n4)cn3)n2)cn1` [Example 202, ((1S,3S)-3-((2-((2-(1-(Cyclopropylsulfonyl)-1H-pyrazol-4-yl)pyrimidin-4-yl)amino)-5-(1-(difluoromethyl)-1H-pyrazol-3-yl)pyridin-4-yl)amino)cyclohexyl)methanol]: the IC50 on EGFR L858R/T790M/C797S (setting [1]) was 1.4 nM; on EGFR L858R/T790M/C797S (setting [6]), 0.5 nM; against EGFR wildtype (WT) (setting [2]), more than 10000 nM; at EGFR wildtype (WT) (setting [7]), 10.6 nM; on EGFR L858R/C797S (setting [3]), 17.8 nM; on EGFR L858R/C797S (setting [8]) it was 2.7 nM. The IC50 is 6.6 nM against EGFR del19/C797S (setting [4]), 1.4 nM at EGFR del19/C797S (setting [9]), 1.3 nM against EGFR del19/T790M/C797S (setting [5]) and 1.1 nM on EGFR del19/T790M/C797S (setting [10]).
Turning to `CN(C)CC1(C)CCC(Nc2cc(Nc3ccnc(-c4cnn(S(=O)(=O)C5CC5)c4)n3)ncc2-c2ccn(CC(F)F)n2)CC1` (stereo not shown) [Example 246, N^2-(2-(1-(Cyclopropylsulfonyl)-1H-pyrazol-4-yl)pyrimidin-4-yl)-5-(1-(2,2-difluoroethyl)-1H-pyrazol-3-yl)-N^4-(4-((dimethylamino)methyl)-4-methylcyclohexyl)pyridine-2,4-diamine], the IC50 is 1.1 nM against EGFR L858R/T790M/C797S (setting [1]); 0.3 nM at EGFR L858R/T790M/C797S (setting [6]); 4510 nM on EGFR wildtype (WT) (setting [2]); 15.4 nM at EGFR wildtype (WT) (setting [7]); 400 nM against EGFR L858R/C797S (setting [3]); 19.9 nM on EGFR L858R/C797S (setting [8]). Further, the IC50 on EGFR del19/C797S (setting [4]) worked out at 10.2 nM; at EGFR del19/C797S (setting [9]), 7.1 nM; on EGFR del19/T790M/C797S (setting [5]), 0.9 nM; at EGFR del19/T790M/C797S (setting [10]), 1 nM.
Turning to `C[C@]1(O)CC[C@@H](Nc2cc(Nc3ccnc(-c4cnn(S(=O)(=O)C5CC5)c4)n3)ncc2-c2cc3n(n2)CCCC3)CC1` [Example 59, (1s,4s)-4-((2-((2-(1-(Cyclopropylsulfonyl)-1H-pyrazol-4-yl)pyrimidin-4-yl)amino)-5-(4,5,6,7-tetrahydropyrazolo[1,5-a]pyridin-2-yl)pyridin-4-yl)amino)-1-methylcyclohexan-1-ol], the IC50 on EGFR L858R/T790M/C797S (setting [1]) is 0.6 nM; at EGFR L858R/T790M/C797S (setting [6]), 0.3 nM; at EGFR wildtype (WT) (setting [2]), 368 nM; at EGFR L858R/C797S (setting [8]), 0.6 nM; against EGFR del19/C797S (setting [4]) it was 1.9 nM; on EGFR del19/C797S (setting [9]), 1 nM. The IC50 against EGFR del19/T790M/C797S (setting [5]) was 0.8 nM; on EGFR del19/T790M/C797S (setting [10]), 0.7 nM.
Turning to `CC(C)(CO)CNc1cc(Nc2ccnc(-c3cnn(S(=O)(=O)C4CC4)c3)n2)ncc1-c1csc(C(C)(C)O)n1` [Example 90, 3-((2-((2-(1-(Cyclopropylsulfonyl)-1H-pyrazol-4-yl)pyrimidin-4-yl)amino)-5-(2-(2-hydroxypropan-2-yl)thiazol-4-yl)pyridin-4-yl)amino)-2,2-dimethylpropan-1-ol], the IC50 against EGFR L858R/T790M/C797S (setting [1]) was 7.1 nM; on EGFR wildtype (WT) (setting [2]), more than 10000 nM; against EGFR L858R/C797S (setting [3]) it was 1490 nM; against EGFR del19/C797S (setting [4]), 367 nM; at EGFR del19/T790M/C797S (setting [5]) it was 2.6 nM.
In the case of `C[C@]1(O)CC[C@@H](Nc2cc(Nc3ccnc(-c4cnn(CC(F)F)c4)n3)ncc2-c2ccn(C(F)F)n2)CC1` [Example 143, (1s,4s)-4-((2-((2-(1-(2,2-Difluoroethyl)-1H-pyrazol-4-yl)pyrimidin-4-yl)amino)-5-(1-(difluoromethyl)-1H-pyrazol-3-yl)pyridin-4-yl)amino)-1-methylcyclohexan-1-ol], the IC50 was 0.2 nM on EGFR L858R/T790M/C797S (setting [1]); 0.1 nM at EGFR L858R/T790M/C797S (setting [6]); more than 10000 nM against EGFR wildtype (WT) (setting [2]); 62.7 nM at EGFR wildtype (WT) (setting [7]); 11.6 nM on EGFR L858R/C797S (setting [3]); 0.9 nM at EGFR L858R/C797S (setting [8]). In addition, the IC50 worked out at 2.7 nM at EGFR del19/C797S (setting [4]), 2.9 nM on EGFR del19/C797S (setting [9]), 0.1 nM at EGFR del19/T790M/C797S (setting [5]) and 0.1 nM at EGFR del19/T790M/C797S (setting [10]).
Take `CC(C)(O)[C@H]1CC[C@@H](Nc2cc(Nc3ccnc(-c4cnn(CC(F)F)c4)n3)ncc2-c2ccn(C(F)F)n2)CC1` [Example 148, 2-((1s,4s)-4-((2-((2-(1-(2,2-Difluoroethyl)-1H-pyrazol-4-yl)pyrimidin-4-yl)amino)-5-(1-(difluoromethyl)-1H-pyrazol-3-yl)pyridin-4-yl)amino)cyclohexyl)propan-2-ol]: the IC50 on EGFR L858R/T790M/C797S (setting [6]) came to 1.7 nM; at EGFR wildtype (WT) (setting [7]), 128 nM; on EGFR L858R/C797S (setting [8]), 27 nM; at EGFR del19/C797S (setting [9]), 75.5 nM; on EGFR del19/T790M/C797S (setting [10]) it was 1.4 nM.
